Experimental data published in patent US5705649A, “Protein staining compositions and methods” (Promega Corporation, priority 1995, dated 1998).

Experiments:
[1] = Spectral analyses of Coomassie Blue R and Promega Green 1, 2, 3; type: physicochemical
Protocol: The three solutions of Promega Green 1, 2, and 3, from examples 1, 2 and 3 respectively, were diluted approximately 500 fold into a 1:1 solution of methanol:water. The spectra of the resulting solutions and of a 12 μg/ml solution of Coomassie Blue R (in 1:1 methanol:water) were recorded from 700 to 340 nm versus 1:1 methanol:water. […] All of the derivatives gave essentially identical spectra; however, the maximal absorbance of the diluted Promega Green i was about twice that seen for the other derivatives. The derivatives had two peak absorptions in the region of the spectrum scanned, a major peak at around 630 nm and a second peak at around 440 nm. The following absorbances were recorded at the peaks near 630 nm for the three Promega Green dye solutions (diluted 1:500 in 1:1 methanol:water): […]

[2] = tested on: Promega Mid-Range Molecular Weight Standards; assay: In-situ staining of proteins during transfer to immobilizing supports
Protocol: The use of immobilizing supports such as nitrocellulose, nylon, glass or polyvinyl difluoride has become very common in the immunochemical or sequence analysis of proteins. […] Two Whatman 3 mM sheets were soaked in transfer buffer and these components were then used to construct a transfer sandwich composed of one sheet of Whatman paper, the SDS-PAGE gel, the Immobilon sheet, and the final sheet of Whatman. The sandwich was placed in a Hoeffer transfer apparatus and oriented in the apparatus such that the Immobilon side of the sandwich was oriented toward the positive electrode. The apparatus was placed at 4° C. and 10 V were applied to the apparatus for 30 minutes then the voltage was increased to 30 V for an additional 120 minutes.
The Immobilon membrane was then soaked in 45% methanol, 5% acetic acid for 2 minutes.

[3] = tested on: Promega Mid-Range Molecular Weight Markers; assay: Recovery of protein using novel recovery method (liquid reservoir in gel); details: 8% SDS-PAGE gel, slots below bands
Description: Because Promega Green 1 can be used to stain protein during electrophoretic separations, we determined that proteins separated by gel electrophoresis can be recovered into a liquid reservoir placed in the gel. This is possible only with in-situ stained proteins because it would not be obvious where to place the liquid reservoir otherwise.
Accordingly, an 8% SDS-PAGE gel was made, loaded and run as described in the preceding example. After the run was complete, one of the glass plates encasing the gel was removed and 1.0×0.3 cm slots were excised from the gel immediately below the 97, 66, 40, and 31 kilodalton standards The gel was then placed in a flat bed electrophoresis apparatus which had its buffer chambers filled with 25 mM tris base, 192 mM glycine (electrode buffer) to the level of the central, raised portion of the apparatus. The gel was placed in the apparatus such that the acrylamide gel above the remaining glass plate was filled with electrode buffer. The slots were also filled with electrode buffer and electric connection was made between the gel and the buffer chambers by use of Whatman 3 mM paper wicks soaked in transfer buffer and then 160 V was applied to the apparatus for 2 minutes. After this, the buffer in the slots was removed and placed in 1.5 ml Eppendorf tubes, the slots were refilled with fresh electrode buffer and the voltage was reapplied. […]

Absorbance at the peak near 630 nm ([1]; diluted 1:500 in 1:1 methanol:water): 1.66 | maximal absorbance relative to the other derivatives ([1]; diluted approximately 500 fold): about twice
SMILES: CCCCCCCC(=O)N(c1ccc(OCC)cc1)c1ccc(C(=C2C=CC(=[N+](CC)Cc3cccc(S(=O)(=O)[O-])c3)C=C2)c2ccc(N(CC)Cc3cccc(S(=O)(=O)O)c3)cc2)cc1 [Promega Green 1]
visibility of bands on membrane after enhancement ([2]; 45% methanol, 5% acetic acid, 2 minutes): the protein band at all concentrations became easily visible | lowest protein per band visible on Immobilon membrane after transfer ([2]; before enhancement): 1.0 µg | capture of protein bands in liquid reservoir [3]: the desired protein bands had been captured by this method
